System: 242566-281-R-J2-PDC complex spheroid viability
Assay: Anticancer human tumor 242566-281-R-J2-PDC patient-derived pancreatic carcinoma cell line growth inhibition [RAS]
Conditions: for viability, T/C: stronger effect = lower value; for IC50: curve of first compound; active = viability on the fitted dose curve at most 10% of control; inactive = the rest
Summary of the method: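 Agents were tested in combination matrices in half-log decrements from a top concentration at or near clinical Cmax (10 microM if undetermined). Targets were multi-cell spheroids of tumour lines plus HUVEC and MSC stromal cells.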
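Note: spheroids exposed to compound for 7 days before readout.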
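Throughout, for viability, T/C: 100% = DMSO vehicle control wells.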

C#Cc1c(F)ccc2cc(O)cc(-c3ncc4c(N5CC6CCC(C5)N6)nc(OCC56CCCN5CC(F)C6)nc4c3F)c12 (configuration not stated)
inactive: viability, T/C (compound 0.0316 µM) 84.1% [middle of 8 runs] | viability, T/C (compound 0.1 µM) 80.2% [middle of 8 runs] | viability, T/C (compound 0.316 µM) 71.4% [middle of 8 runs] | viability, T/C (compound 3.16 µM) 53.9% [middle of 8 runs] | viability, T/C (compound 10 µM) 49.6% [middle of 8 runs]

CC(=O)OC12COC1CC(O)C1(C)C(=O)C(O)C3=C(C)C(OC(=O)C(O)C(NC(=O)OC(C)(C)C)c4ccccc4)CC(O)(C(OC(=O)c4ccccc4)C21)C3(C)C (configuration not stated) + C#Cc1c(F)ccc2cc(O)cc(-c3ncc4c(N5CC6CCC(C5)N6)nc(OCC56CCCN5CC(F)C6)nc4c3F)c12
inactive: viability, T/C (second compound 0.0316 µM, first compound 0.0316 µM) 62.9% | viability, T/C (second compound 0.0316 µM, first compound 0.1 µM) 54.2% | viability, T/C (second compound 0.0316 µM, first compound 0.316 µM) 55% | viability, T/C (second compound 0.0316 µM, first compound 1 µM) 37.4% | viability, T/C (second compound 0.0316 µM, first compound 3.16 µM) 55.3% | viability, T/C (second compound 0.0316 µM, first compound 10 µM) 71.7% | viability, T/C (second compound 0.1 µM, first compound 0.0316 µM) 54.4% | viability, T/C (second compound 0.1 µM, first compound 0.1 µM) 52.1% | viability, T/C (second compound 0.1 µM, first compound 0.316 µM) 42.2% | viability, T/C (second compound 0.1 µM, first compound 1 µM) 40.9% | viability, T/C (second compound 0.1 µM, first compound 3.16 µM) 52.8% | viability, T/C (second compound 0.1 µM, first compound 10 µM) 56.9% | viability, T/C (second compound 0.316 µM, first compound 0.0316 µM) 45.7% | viability, T/C (second compound 0.316 µM, first compound 0.1 µM) 43.1% | viability, T/C (second compound 0.316 µM, first compound 0.316 µM) 30.8% | viability, T/C (second compound 0.316 µM, first compound 1 µM) 40.6% | viability, T/C (second compound 0.316 µM, first compound 3.16 µM) 39.9% | viability, T/C (second compound 0.316 µM, first compound 10 µM) 43.6% | viability, T/C (second compound 1 µM, first compound 0.0316 µM) 37.8% | viability, T/C (second compound 1 µM, first compound 0.1 µM) 36.4% | viability, T/C (second compound 1 µM, first compound 0.316 µM) 36.5% | viability, T/C (second compound 1 µM, first compound 1 µM) 32.3% | viability, T/C (second compound 1 µM, first compound 3.16 µM) 34.2% | viability, T/C (second compound 1 µM, first compound 10 µM) 29% | viability, T/C (second compound 3.16 µM, first compound 0.0316 µM) 37.1% | viability, T/C (second compound 3.16 µM, first compound 0.1 µM) 26.4% | viability, T/C (second compound 3.16 µM, first compound 0.316 µM) 23.6% | viability, T/C (second compound 3.16 µM, first compound 1 µM) 30.3% | viability, T/C (second compound 3.16 µM, first compound 3.16 µM) 30.7% | viability, T/C (second compound 3.16 µM, first compound 10 µM) 23.2% | viability, T/C (second compound 10 µM, first compound 0.0316 µM) 30.2% | viability, T/C (second compound 10 µM, first compound 0.1 µM) 26.5% | viability, T/C (second compound 10 µM, first compound 0.316 µM) 23.4% | viability, T/C (second compound 10 µM, first compound 1 µM) 25.6% | viability, T/C (second compound 10 µM, first compound 3.16 µM) 28.6% | viability, T/C (second compound 10 µM, first compound 10 µM) 28.2%
< 0.0316 µM: IC50 (second compound 0.1 µM) | IC50 (second compound 0.316 µM) | IC50 (second compound 1 µM) | IC50 (second compound 3.16 µM) | IC50 (second compound 10 µM)
> 10 µM: IC50 (second compound 0.0316 µM)
